From ChEMBL document CHEMBL5038673, “Novel Tricyclic Heteroaryl Compounds as IRAK4 Inhibitors for Treating Cancer, Autoimmune and Inflammatory Diseases” (ACS Med Chem Lett, 2022) come the findings set out here.

pIC50: −log10 of the molar value.

The experiment concerns the target T1, Interleukin-1 receptor-associated kinase 4 (Homo sapiens, UniProt Q9NWZ3).
T1 sequence (Q9NWZ3 whole entry): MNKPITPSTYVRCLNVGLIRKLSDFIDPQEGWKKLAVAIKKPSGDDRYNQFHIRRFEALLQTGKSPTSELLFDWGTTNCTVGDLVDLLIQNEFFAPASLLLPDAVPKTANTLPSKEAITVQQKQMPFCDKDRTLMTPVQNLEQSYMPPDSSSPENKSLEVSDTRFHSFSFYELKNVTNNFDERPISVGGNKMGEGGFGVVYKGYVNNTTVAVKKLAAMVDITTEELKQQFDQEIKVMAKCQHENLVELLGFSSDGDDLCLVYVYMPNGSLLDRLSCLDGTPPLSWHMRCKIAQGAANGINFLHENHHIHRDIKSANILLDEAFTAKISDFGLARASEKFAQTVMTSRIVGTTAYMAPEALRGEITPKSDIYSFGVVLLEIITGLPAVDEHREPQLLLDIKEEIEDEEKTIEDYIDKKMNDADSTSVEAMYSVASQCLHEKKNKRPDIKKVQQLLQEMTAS
The experiment is described as follows: Inhibition of IRAK4 (unknown origin) using FL- IPTSPITTTYFFFKKK peptide as substrate in presence of ATP incubated for 60 mins by fluorescence assay.

As to `CC(C)Nc1c(C(=O)NCCC2CCNC2)cnc2c1[nH]c1cc(C#N)ccc12` (stereo unspecified), the negative logarithm of the IC50 (pIC50) (as a rule, the IC50 on a negative log10 scale, so that one unit is a factor of ten) was 8.72.
